Source: patent publication US10988792B2, “Methods for antimicrobial resistance determination” (bioMerieux, Inc., priority 2009, dated 2021)

Legend:
[1] = tested on: Twenty different strains of S. aureus (10 MRSA and 10 MSSA strains); test: BOCILLIN-FL binding to a panel of MRSA and MSSA strains; settings: signal Ex490_Em510 normalized to tryptophan Ex285_Em350; 50 μM BOCILLIN-FL (0.1 ml) + 0.9 ml strain, 30 minutes at 37° C. (FIG. 4)
Experimental: Twenty different strains of S. aureus (10 MRSA and 10 MSSA strains, confirmed with cefoxitin discs and Vitek-2) were propagated. A loopful of growth (1 μL) was removed from 24-hour plates and suspended in BacT/ALERT SA culture media (8 ml in a glass screw-capped tube). The tubes were vortexed well and incubated at 36° C. for 6 hours. The OD of each suspension was measured at 660 nm and adjusted to approximately the same density (0.50-0.75 OD; sample #12166 was only 0.28). 50 μM BOCILLIN™-FL (0.1 ml) was placed into each of 20 labeled microfuge tubes. A sample of each strain (0.9 ml) was added to each tube, mixed, and incubated at 37° C. for 30 minutes. The reaction mixture was then removed and added to a second set of tubes containing 0.2 ml of an oil blend (1.000 part type DF immersion oil plus 0.875 part Drakeol 5 mineral oil). The tubes were centrifuged for 2 minutes at 10,000 rpm in an A-8-11 rotor (Eppendorf 5417R). The supernatant and most of the oil was aspirated with a vacuum device. The remaining oil was removed using a Gilson P200 tip and the pellet was resuspended in 100 μl PBS. The cells were transferred to an acrylic cuvette containing 3 ml PBS and read in the FluoroLog 3 system using the FluoroScan “Bocillin” points listed in Table 3. Additionally, Vitek AST cards were run on each of the 20 isolates (from the same 24 hour plates).

[2] = tested on: S. aureus strains ATCC 25923 (MSSA) and D14906 (MRSA); test: Titration of BOCILLIN-FL binding
Experimental: Samples of S. aureus strains ATCC 25923 (MSSA) and D14906 (MRSA) were grown in BacT/ALERT SA culture media at 37° C. for about 6 hours until an OD 660 nm of about 0.35 was reached. Dilutions of BOCILLIN™-FL (0.1 ml) were prepared in SA medium and placed into culture tubes. Samples of the bacterial suspension (0.9 ml) were added to the tubes and mixed. The tubes were capped and placed in a 37° C. incubator for 60 minutes. Samples (1.0 ml) were transferred to microfuge tubes containing 0.2 ml of the same oil blend used in Example 1, centrifuged for 1 minute, aspirated, and the pellet was resuspended in 0.1 ml PBS and then added to 3.0 ml PBS, pH 7.4 in an acrylic cuvette. The sample was scanned in the FluoroLog-3 system at an excitation wavelength of 490 nm and the fluorescence emission at 510 nm was recorded.

BOCILLIN-FL bound by the five benzyl-penicillin sensitive strains versus the fifteen benzyl-penicillin resistant strains [1]: over twice the amount | Shape of the MSSA binding curve ([2]; MSSA strain, second order polynomial curve fit): biphasic | Difference in binding between the MSSA and MRSA strains ([2]; at about 0.5 μM BOCILLIN-FL): 4 fold | Difference in binding between the MSSA and MRSA strains ([2]; at about 5 μM BOCILLIN-FL): 3 fold
Structure (SMILES): Cc1cc(C)n2c1C=C1C=CC(CCC(=O)Nc3ccc(OCC(=O)N[C@@H]4C(=O)N5[C@@H]4SC(C)(C)[C@@H]5C(=O)[O-])cc3)=[N+]1[B-]2(F)F.[Na+] [BOCILLIN™-FL]
BOCILLIN-FL bound by the MSSA strain, more than the MRSA strain, per cell basis ([2]; depending on the BOCILLIN-FL concentration, 60 minutes at 37° C. (FIG. 3)): 2-4 fold
